Data: patent US6914045B2, “Glycopeptide antibiotics” (Wyeth Holdings Corporation, priority 2001, dated 2005)
Values after ≈ are worked out from the molar mass of the structure shown.

Columns and labels:
Assay in all cases: in vitro antibacterial evaluation, MIC by broth dilution
Assay type in all cases: cell-based
Escherichia coli = details: 18 hours at 35° C.
Outline: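 Broth dilution MIC per NCCLS M7-A2 in Mueller-Hinton II medium, inoculum 5×10^5 CFU/mL, antibiotic range 64-0.06 μg/mL. MIC taken as lowest concentration inhibiting growth.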

Streptococcus sp. = details: broth dilution, 18 hours at 35° C.
Outline: (§1)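 MIC = lowest antibiotic concentration preventing visible growth; inoculum 5×10^5 CFU/mL; drug range 64-0.06 μg/mL; Muller-Hinton II […]; NCCLS M7-A2 guidance.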

Enterococcus sp. = details: broth dilution, 18 hours at 35° C.
Outline: as §1

Staphylococcus sp. = details: broth dilution, 18 hours at 35° C.
Outline: as §1

CC(c1ccccc1)C1NC(=O)CNC(=O)C(CO)NC(=O)C(C(O)C2CN(c3ncccn3)C(=N)N2C2OC(CO)C(O)C(O)C2O)NC(=O)C(C(O)C2CNC(=Nc3ncccn3)N2)NC(=O)C(Cc2ccc(OC3OC(CO)C(OC4OC(CO)C(O)C(O)C4O)C(O)C3O)cc2)NC1=O (stereo not drawn) [Example 92, Cyclo[glycyl-β-methylphenylalanyl-O-(4-O-hexolpyranosylhexopyranosyl)tyrosyl-3-[2-(pyrimidin-2-ylimino)imidazolidin-4-yl]seryl-3-[3-hexopyranosyl-2-imino-1-(pyrimidin-2-yl)imidazolidin-4-yl]serylseryl]]
MIC Escherichia coli (ATCC 25922) (Escherichia coli): >128 µg/mL | MIC Escherichia coli (GC 4559) (Escherichia coli): >128 µg/mL | MIC Escherichia coli (GC 4560) (Escherichia coli): >128 µg/mL | MIC Streptococcus agalactiae (GC 4564) (Streptococcus sp.): >128 µg/mL | MIC Streptococcus pneumoniae (ATCC 6301) (Streptococcus sp.): 128 µg/mL (≈ 88.2 µM) | MIC Streptococcus pneumoniae (GC 1894) (Streptococcus sp.): 128 µg/mL (≈ 88.2 µM) | MIC Streptococcus pneumoniae (GC 4565) (Streptococcus sp.): 128 µg/mL (≈ 88.2 µM) | MIC Streptococcus pyogenes (GC 4563) (Streptococcus sp.): >128 µg/mL | MIC Streptococcus pneumoniae (ATCC 6301) (Streptococcus sp.; strain ATCC 6301): 128 µg/mL (≈ 88.2 µM) | MIC Streptococcus pneumoniae (GC 1894) (Streptococcus sp.; strain GC 1894): 128 µg/mL (≈ 88.2 µM) | MIC Streptococcus pyogenes (GC 4563) (Streptococcus sp.; strain GC 4563): >128 µg/mL | MIC Streptococcus agalactiae (GC 4564) (Streptococcus sp.; strain GC 4564): >128 µg/mL | MIC Streptococcus pneumoniae (GC 4565) (Streptococcus sp.; strain GC 4565): 128 µg/mL (≈ 88.2 µM) | MIC Enterococcus avium (GC 4558) (Enterococcus sp.; Enterococcus avium (GC 4558)): 128 µg/mL (≈ 88.2 µM) | MIC Enterococcus faecalis (ATCC 29212) (Enterococcus sp.; Enterococcus faecalis (ATCC 29212)): >128 µg/mL | MIC Enterococcus faecalis (GC 4552) (Enterococcus sp.; Enterococcus faecalis (GC 4552)): >128 µg/mL | MIC Enterococcus faecalis (GC 4553) (Enterococcus sp.; Enterococcus faecalis (GC 4553)): 128 µg/mL (≈ 88.2 µM) | MIC Enterococcus faecalis (GC 4554) (Enterococcus sp.; Enterococcus faecalis (GC 4554)): >128 µg/mL | MIC Enterococcus faecalis (GC 6189) (Enterococcus sp.; Enterococcus faecalis (GC 6189)): >128 µg/mL | MIC Enterococcus faecium (GC 2243) (Enterococcus sp.; Enterococcus faecium (GC 2243)): >128 µg/mL | MIC Enterococcus faecium (GC 4556) (Enterococcus sp.; Enterococcus faecium (GC 4556)): >128 µg/mL | MIC Enterococcus faecium (GC 4557) (Enterococcus sp.; Enterococcus faecium (GC 4557)): 128 µg/mL (≈ 88.2 µM) | MIC Enterococcus avium (GC 4558) (Enterococcus sp.): 128 µg/mL (≈ 88.2 µM) | MIC Enterococcus faecalis (ATCC 29212) (Enterococcus sp.): >128 µg/mL | MIC Enterococcus faecalis (GC 2242) (Enterococcus sp.): >128 µg/mL | MIC Enterococcus faecalis (GC 2691) (Enterococcus sp.): >128 µg/mL | MIC Enterococcus faecalis (GC 3059) (Enterococcus sp.): >128 µg/mL | MIC Enterococcus faecalis (GC 4552) (Enterococcus sp.): >128 µg/mL | MIC Enterococcus faecalis (GC 4553) (Enterococcus sp.): 128 µg/mL (≈ 88.2 µM) | MIC Enterococcus faecalis (GC 4554) (Enterococcus sp.): >128 µg/mL | MIC Enterococcus faecalis (GC 6189) (Enterococcus sp.): >128 µg/mL | MIC Enterococcus faecium (GC 2243) (Enterococcus sp.): >128 µg/mL | MIC Enterococcus faecium (GC 4556) (Enterococcus sp.): >128 µg/mL | MIC Enterococcus faecium (GC 4557) (Enterococcus sp.): 128 µg/mL (≈ 88.2 µM) | MIC Enterococcus faecalis (GC 2242) (Enterococcus sp.; strain GC 2242): >128 µg/mL | MIC Enterococcus faecalis (GC 2691) (Enterococcus sp.; strain GC 2691): >128 µg/mL | MIC Enterococcus faecalis (GC 3059) (Enterococcus sp.; strain GC 3059): >128 µg/mL | MIC Coagulase Negative Staphylococcus (GC 4547) (Staphylococcus sp.): >128 µg/mL | MIC Coagulase Negative Staphylococcus (GC 4548) (Staphylococcus sp.): >128 µg/mL | MIC Coagulase Negative Staphylococcus (GC 4549) (Staphylococcus sp.): >128 µg/mL | MIC Coagulase Negative Staphylococcus (GC 4551) (Staphylococcus sp.): >128 µg/mL | MIC Staphylococcus aureus-SMITH (GC 4543) (Staphylococcus sp.): >128 µg/mL | MIC Staphylococcus haemolyticus (GC 4546) (Staphylococcus sp.): >128 µg/mL | MIC Staphylococcus aureus (ATCC 29213) (Staphylococcus sp.; strain ATCC 29213): >128 µg/mL | MIC Staphylococcus aureus (GC 1131) (Staphylococcus sp.; strain GC 1131): >128 µg/mL | MIC Staphylococcus aureus (GC 3051) (Staphylococcus sp.; strain GC 3051): >128 µg/mL | MIC Staphylococcus aureus (GC 3053) (Staphylococcus sp.; strain GC 3053): >128 µg/mL | MIC Staphylococcus aureus (GC 4541) (Staphylococcus sp.; strain GC 4541): >128 µg/mL | MIC Staphylococcus aureus (GC 4542) (Staphylococcus sp.; strain GC 4542): >128 µg/mL | MIC Staphylococcus aureus-SMITH (GC 4543) (Staphylococcus sp.; strain GC 4543): >128 µg/mL | MIC Staphylococcus aureus (GC 4544) (Staphylococcus sp.; strain GC 4544): >128 µg/mL | MIC Staphylococcus aureus (GC 4545) (Staphylococcus sp.; strain GC 4545): >128 µg/mL | MIC Staphylococcus haemolyticus (GC 4546) (Staphylococcus sp.; strain GC 4546): >128 µg/mL | MIC Coagulase Negative Staphylococcus (GC 4547) (Staphylococcus sp.; strain GC 4547): >128 µg/mL | MIC Coagulase Negative Staphylococcus (GC 4548) (Staphylococcus sp.; strain GC 4548): >128 µg/mL | MIC Coagulase Negative Staphylococcus (GC 4549) (Staphylococcus sp.; strain GC 4549): >128 µg/mL | MIC Coagulase Negative Staphylococcus (GC 4551) (Staphylococcus sp.; strain GC 4551): >128 µg/mL
